From patent publication US20240423925A1, “GRANULE COMPRISING ENCAPSULATED ACTIVE INGREDIENTS” (DSM IP ASSETS B.V., priority 2021, published 2024)

Assay: Differential scanning calorimetry (DSC) of sorbitol grades
Type: physicochemical
Settings: sorbitol grades used as binder
Protocol: Different grades of sorbitol were then investigated in order to further reduce the energy required to generate good water soluble granules. Samples were analyzed via differential scanning calorimetry (DSC) in order to determine the sorbitol grade with the lowest melt energy. When using sorbitol grade Xtab300S (available at Roquette®) as a binder, the energy required to generate good water-soluble granules is lower than the other grades (cf. Table below).

| Melt Energy | Compound |
| --- | --- |
| 181.9 J/g | OC[C@@H](O)[C@@H](O)[C@H](O)[C@@H](O)CO [Example P100C, sorbitol] |
| 180.3 J/g | OC[C@@H](O)[C@@H](O)[C@H](O)[C@@H](O)CO [Example P300C, sorbitol] |
| 165.1 J/g | OC[C@@H](O)[C@@H](O)[C@H](O)[C@@H](O)CO [Example P550SD, sorbitol] |
| 174.9 J/g | OC[C@@H](O)[C@@H](O)[C@H](O)[C@@H](O)CO [Example P650C, sorbitol] |
| 161.7 J/g | OC[C@@H](O)[C@@H](O)[C@H](O)[C@@H](O)CO [Xtab200S, sorbitol] |
| 126.5 J/g | OC[C@@H](O)[C@@H](O)[C@H](O)[C@@H](O)CO [Xtab300S, sorbitol] |
